Source: patent US9890166B2, “Imidazopyrrolidine derivatives and their use in the treatment of disease” (NOVARTIS AG, priority 2013, dated 2018)

How the values were obtained:
BRD2 (His-Brd2(60-472)) = BRD2 (His-Brd2(60-472)) (Homo sapiens (Human), UniProt P25440); test: TR-FRET in-vitro binding assay for BRD2; conditions: single determination or n ≧ 2 independent determinations, read-out: Biochemical IC50 BRD2
Outline: (§1)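 In this TR-FRET format, each compound was tested as an 8-point dilution series, single point per concentration, dispensed from 90% DMSO solution. Incubation lasted 35 minutes at 30° C.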

[1] = biological target: nuclear BRD4-NUT foci in HCC2494 NUT midline carcinoma cells (Homo sapiens, UniProt O60885); test: cell-based
BRD3 (His-Brd3(20-477)) = BRD3 (His-Brd3(20-477)) (Homo sapiens (Human), UniProt Q15059); test: TR-FRET in-vitro binding assay for BRD3; conditions: single determination or n ≧ 2 independent determinations, read-out: Biochemical IC50 BRD3
Chain of BRD3 (His-Brd3(20-477)) (Q15059 20-477): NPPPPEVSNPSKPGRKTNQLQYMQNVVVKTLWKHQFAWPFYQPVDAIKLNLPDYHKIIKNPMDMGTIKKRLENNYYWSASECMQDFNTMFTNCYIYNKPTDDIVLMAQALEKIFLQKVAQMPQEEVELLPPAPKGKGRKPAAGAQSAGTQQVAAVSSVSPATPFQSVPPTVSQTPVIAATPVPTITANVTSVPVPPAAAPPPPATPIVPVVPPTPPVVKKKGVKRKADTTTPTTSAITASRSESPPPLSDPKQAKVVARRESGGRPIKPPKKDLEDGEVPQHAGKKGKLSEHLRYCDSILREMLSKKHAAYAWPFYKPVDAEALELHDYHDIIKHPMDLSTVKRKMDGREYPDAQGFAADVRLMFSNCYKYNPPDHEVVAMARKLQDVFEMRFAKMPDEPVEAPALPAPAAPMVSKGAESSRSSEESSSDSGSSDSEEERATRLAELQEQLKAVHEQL
Outline: as §1

THP-1 cells = test: Cell growth inhibition assay (CellTiter-Glo), THP-1; conditions: for GI50: Homo sapiens, THP-1, read-out: THP-1 GI50; for THP-1 TGI: THP-1 cells, total growth inhibition, CellTiter-Glo;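 for all read-outs here: viability read as cellular ATP luminescence after 4 days, 3-fold dilution series from 10 µM, DMSO vehicle-treated cells taken as 100%, cell-free medium wells as −100%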
BRD4 (His-Brd4(44-477)) = BRD4 (His-Brd4(44-477)) (Homo sapiens (Human), UniProt O60885); test: TR-FRET in-vitro binding assay for BRD4; conditions: single determination or n ≧ 2 independent determinations, read-out: Biochemical IC50 BRD4
Outline: as §1

MV-4-11 cells = test: Cell growth inhibition assay (CellTiter-Glo), MV-4-11; conditions: for GI50: Homo sapiens, MV4-11, read-out: MV-4-11 GI50; for MV-4-11 TGI: MV-4-11 cells, total growth inhibition, CellTiter-Glo;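 for all read-outs here: cellular ATP luminescence after 4 days, 3-fold dilution series from 10 µM top dose, vehicle (0.1% DMSO) set to 100%, cell-free medium set to −100%, day 0 corrected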
K-562 cells = test: Cell growth inhibition assay (CellTiter-Glo), K-562; conditions: for GI50: Homo sapiens, K562, read-out: K-562 GI50; for K-562 TGI: K-562 cells, total growth inhibition, CellTiter-Glo;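 for all read-outs here: cellular ATP measured by luminescence after 4 days of exposure, 3-fold dilution series from 10 µM, DMSO vehicle-treated cells define 100%, cell-free medium wells −100%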
[2] = biological target: CREBBP bromodomain (His-CREBBP(1081-1197)) (Homo sapiens (Human), UniProt Q92793); test: AlphaScreen in-vitro binding assay for CREBBP; conditions: single determination or n ≧ 2 independent determinations, read-out: Biochemical IC50 CREBBP
Chain of CREBBP bromodomain (His-CREBBP(1081-1197)) (Q92793 1081-1197): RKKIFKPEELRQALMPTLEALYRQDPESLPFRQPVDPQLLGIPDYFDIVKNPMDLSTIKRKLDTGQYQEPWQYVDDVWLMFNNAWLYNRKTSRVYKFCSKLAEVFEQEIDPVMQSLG
Outline: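 Detection used nickel-chelate acceptor plus streptavidin donor AlphaScreen beads, 1 h room temperature. Percent inhibition fitted by non-linear regression to IC50.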

Chain of BRD2 (His-Brd2(60-472)) (P25440 60-472): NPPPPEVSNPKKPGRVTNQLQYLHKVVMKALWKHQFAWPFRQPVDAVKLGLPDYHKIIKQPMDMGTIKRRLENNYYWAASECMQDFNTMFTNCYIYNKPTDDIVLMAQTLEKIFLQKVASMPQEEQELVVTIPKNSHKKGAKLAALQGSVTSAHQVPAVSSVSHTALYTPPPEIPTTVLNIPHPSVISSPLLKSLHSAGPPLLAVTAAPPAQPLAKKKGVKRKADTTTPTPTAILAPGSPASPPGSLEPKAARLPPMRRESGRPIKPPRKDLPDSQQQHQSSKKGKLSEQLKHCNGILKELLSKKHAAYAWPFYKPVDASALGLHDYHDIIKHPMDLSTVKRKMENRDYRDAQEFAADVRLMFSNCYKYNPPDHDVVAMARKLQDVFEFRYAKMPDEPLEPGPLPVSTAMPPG

| Compound | IC50 (BRD2 (His-Brd2(60-472))) | IC50 [1] | IC50 (BRD3 (His-Brd3(20-477))) | GI50 (THP-1 cells) | IC50 (BRD4 (His-Brd4(44-477))) | GI50 (MV-4-11 cells) | GI50 (K-562 cells) | IC50 [2] | THP-1 TGI (THP-1 cells) | MV-4-11 TGI (MV-4-11 cells) | K-562 TGI (K-562 cells) |
| --- | --- | --- | --- | --- | --- | --- | --- | --- | --- | --- | --- |
| Cc1cc(N2C(=O)c3nc(C4=CCCN(C)C4)n(C(C)C)c3C2c2ccc(Cl)cc2)cn2c(C)nnc12 (centres unmarked) [Example 12, 6-(4-chlorophenyl)-5-(3,8-dimethyl-[1,2,4]triazolo[4,3-a]pyridin-6-yl)-1-isopropyl-2-(1-methyl-1,2,5,6-tetrahydropyridin-3-yl)-5,6-dihydropyrrolo[3,4-d]imidazol-4(1H)-one] | 43 nM | 374 nM | 21 nM | 264 nM | 20 nM | 42.2 nM | 1040 nM | 8900 nM | 715 nM | 78.45 nM | >10000 nM |
| CCn1c(-c2ccc(OC)nc2)nc2c1C(=O)N(c1cc(C)c(=O)n(C)c1)[C@@H]2c1ccc(Cl)cc1 [Example 39, (R)-6-(4-chlorophenyl)-5-(1,5-dimethyl-6-oxo-1,6-dihydropyridin-3-yl)-3-ethyl-2-(6-methoxypyridin-3-yl)-5,6-dihydropyrrolo[3,4-d]imidazol-4(3H)-one] | 24 nM | 21.1 nM | 32 nM | 26.2 nM | 28.5 nM | 11.7 nM | 72 nM | 910 nM | 48.1 nM | 23.9 nM | >10000 nM |
| Cc1cc(N2C(=O)c3c(nc(C)n3C(C)C)[C@H]2c2ccc(Cl)cc2)cc2c1nnn2C [Example 118, (R)-6-(4-chlorophenyl)-5-(3,7-dimethyl-3H-benzo[d][1,2,3]triazol-5-yl)-3-isopropyl-2-methyl-5,6-dihydropyrrolo[3,4-d]imidazol-4(3H)-one] | 14 nM | 3.4 nM | 12 nM | 5.12 nM | < 11 nM | 2.1 nM | 28.4 nM | 1080 nM | 12.5 nM | 3.79 nM | >10000 nM |
| CCn1c(-c2ccc(OC)nc2)nc2c1C(=O)N(c1cc(C)c(=O)n(C)c1)C2c1ccc(Cl)cc1 (centres unmarked) [Example 38, 6-(4-chlorophenyl)-5-(1,5-dimethyl-6-oxo-1,6-dihydropyridin-3-yl)-3-ethyl-2-(6-methoxypyridin-3-yl)-5,6-dihydropyrrolo[3,4-d]imidazol-4(3H)-one] | 92.5 nM | 24.5 nM | 76 nM | 74.9 nM | 78 nM | 30.1 nM | 271 nM | 2000 nM | 118 nM | 48.9 nM | >10000 nM |
| Cc1cc(N2C(=O)c3nc(C)n(C(C)C)c3C2c2ccc(Cl)cc2)nn2c(C)nnc12 (racemic) [Example 18, 6-(4-chlorophenyl)-5-(3,8-dimethyl-[1,2,4]triazolo[4,3-b]pyridazin-6-yl)-1-isopropyl-2-methyl-5,6-dihydropyrrolo[3,4-d]imidazol-4(1H)-one] | 19 nM | 7.55 nM | 11 nM | 15.9 nM | 13 nM | 11.2 nM | 91 nM | 27700 nM | 35.6 nM | 26.95 nM | >10000 nM |
| COc1cc(N2C(=O)c3nc(C4CC4)n(C)c3C2c2ccc(Cl)cc2)cn2c(C)nnc12 (centres unmarked) [Example 56, 6-(4-chlorophenyl)-2-cyclopropyl-5-(8-methoxy-3-methyl-[1,2,4]triazolo[4,3-a]pyridin-6-yl)-1-methyl-5,6-dihydropyrrolo[3,4-d]imidazol-4(1H)-one] | 290 nM | 1210 nM | 210 nM | 1240 nM | 130 nM | 816 nM | 3230 nM | > 37000 nM | 3670 nM | 1340 nM | >10000 nM |

Further lines, with some results ahead:

| IC50 (BRD2 (His-Brd2(60-472))) | IC50 [1] | IC50 (BRD3 (His-Brd3(20-477))) | GI50 (THP-1 cells) | IC50 (BRD4 (His-Brd4(44-477))) | GI50 (MV-4-11 cells) | GI50 (K-562 cells) | IC50 [2] | Compound | THP-1 TGI (THP-1 cells) | MV-4-11 TGI (MV-4-11 cells) | K-562 TGI (K-562 cells) |
| --- | --- | --- | --- | --- | --- | --- | --- | --- | --- | --- | --- |
| 220 nM | 1330 nM | 200 nM | 1270 nM | 92 nM | 505 nM | 7990 nM | > 37000 nM | COc1cc(N2C(=O)c3nc(C4=CCOCC4)n(C(C)C)c3C2c2ccc(Cl)cc2)cn2c(C)nnc12 (centres unmarked) [Example 53, 6-(4-chlorophenyl)-2-(3,6-dihydro-2H-pyran-4-yl)-1-isopropyl-5-(8-methoxy-3-methyl-[1,2,4]triazolo[4,3-a]pyridin-6-yl)-5,6-dihydropyrrolo[3,4-d]imidazol-4(1H)-one] | 3740 nM | 939 nM | >10000 nM |
| 48 nM | 80 nM | 41 nM | 71.9 nM | 37 nM | 42 nM | 318 nM | 16100 nM | Cc1cc(N2C(=O)c3nc(-c4ncco4)n(C(C)C)c3C2c2ccc(Cl)cc2)cn2c(C)nnc12 (centres unmarked) [Example 15, 6-(4-chlorophenyl)-5-(3,8-dimethyl-[1,2,4]triazolo[4,3-a]pyridin-6-yl)-1-isopropyl-2-(oxazol-2-yl)-5,6-dihydropyrrolo[3,4-d]imidazol-4(1H)-one] | 132 nM | 86.25 nM | >10000 nM |
| 100 nM | 323 nM | 75 nM | 322 nM | 41 nM | 166 nM | 1080 nM | > 37000 nM | COc1cc(N2C(=O)c3nc(C4CC4)n(C(C)C)c3C2c2ccc(Cl)cc2)cn2c(C)nnc12 (centres unmarked) [Example 17, 6-(4-chlorophenyl)-2-cyclopropyl-1-isopropyl-5-(8-methoxy-3-methyl-[1,2,4]triazolo[4,3-a]pyridin-6-yl)-5,6-dihydropyrrolo[3,4-d]imidazol-4(1H)-one] | 704.5 nM | 316.5 nM | >10000 nM |
| 49 nM | 263 nM | 47 nM | 220 nM | 45 nM | 74.3 nM | 562 nM | > 24000 nM | COc1ccc(-c2nc3c(n2C)C(c2ccc(Cl)cc2)N(c2cc(C)c4nnc(C)n4c2)C3=O)cn1 (centres unmarked) [Example 16, 6-(4-chlorophenyl)-5-(3,8-dimethyl-[1,2,4]triazolo[4,3-a]pyridin-6-yl)-2-(6-methoxypyridin-3-yl)-1-methyl-5,6-dihydropyrrolo[3,4-d]imidazol-4(1H)-one] | 370 nM | 125.5 nM | >10000 nM |
| 91 nM | 92 nM | 79 nM | 152 nM | 86 nM | 51 nM | 309 nM | 970 nM | COc1ccc(-c2nc3c(n2C)C(c2ccc(Cl)cc2)N(c2cc(C)c(=O)n(C)c2)C3=O)cn1 (centres unmarked) [Example 8, 6-(4-chlorophenyl)-5-(1,5-dimethyl-6-oxo-1,6-dihydropyridin-3-yl)-2-(6-methoxypyridin-3-yl)-1-methyl-5,6-dihydropyrrolo[3,4-d]imidazol-4(1H)-one] | 314 nM | 98 nM | >10000 nM |
| 65 nM | 64.2 nM | 61 nM | 74.3 nM | 69 nM | 53.5 nM | 274 nM | 3400 nM | CCn1c(-c2ccnn2C)nc2c1C(=O)N(c1cc(C)c(=O)n(C)c1)C2c1ccc(Cl)cc1 (centres unmarked) [Example 42, 6-(4-chlorophenyl)-5-(1,5-dimethyl-6-oxo-1,6-dihydropyridin-3-yl)-3-ethyl-2-(1-methyl-1H-pyrazol-5-yl)-5,6-dihydropyrrolo[3,4-d]imidazol-4(3H)-one] | 126 nM | 102.3 nM | >10000 nM |
| 32 nM | 67 nM | 38 nM | 60 nM | 30 nM | 37.1 nM | 221 nM | 560 nM | COc1ccc(-c2nc3c([nH]2)[C@@H](c2ccc(Cl)cc2)N(c2cc(C)c(=O)n(C)c2)C3=O)cn1 [Example 5, (R)-6-(4-chlorophenyl)-5-(1,5-dimethyl-6-oxo-1,6-dihydropyridin-3-yl)-2-(6-methoxypyridin-3-yl)-5,6-dihydropyrrolo[3,4-d]imidazol-4(1H)-one] | 106 nM | 73.9 nM | >10000 nM |
